Test results published in PMC11219833, “Design and radiosynthesis of class-IIa HDAC inhibitor with high molar activity via repositioning the ^18F-radiolabel” (Scientific Reports, 2024).

Experiments:
recombinant human HDAC1 = target: T1, recombinant human HDAC1 (Homo sapiens, UniProt Q13547); experiment: HDAC isoform inhibition fluorogenic assay (BPS Bioscience kit); format: biochemical; settings: class-I
T1 construct: purchased BPS Bioscience, Inc
Description: (§1) We utilized the well-established fluorogenic assay to screen NT376 against recombinant human HDAC isoforms and against endogenous HDACs in HT-29 cells. The class IIa HDAC fluorogenic assay functions in a two-step process: first, the class IIa HDAC removes the trifluoroacetate (TFA) from TFA-lysine substrate to generate free lysine which is recognized by trypsin and releases a fluorescent fluorophore (intact substrate is not recognized by trypsin) that can be detected using microplate reader. The IC50 was determined using nonlinear fit curves (GraphPad Prism) (% HDAC activity inhibition vs. compound concentration). The IC50 measurements were performed in triplicates and experiments were repeated twice with known HDAC inhibitors NT160 and SAHA used as positive and negative controls respectively.
(§2) Preparation of NT376: A 1.0 mM stock solution of NT376 was prepared in 100% DMSO. 11-dilutions of NT376 were then prepared in HDAC assay buffer with the DMSO adjusted to 2.5% final concentration in the assay medium.
(§3) NT376 was screened against recombinant human HDACs isoforms using the commercially available HDACs enzyme assay kits (BPS Bioscience, Inc.). The experiments were performed according to the manufacturer protocol.

recombinant human HDAC11 = target: T2, recombinant human HDAC11 (Homo sapiens, UniProt Q96DB2); experiment: as above; format: biochemical; settings: class-IV
T2 construct: purchased BPS Bioscience, Inc
T2 sequence (Q96DB2 1-347): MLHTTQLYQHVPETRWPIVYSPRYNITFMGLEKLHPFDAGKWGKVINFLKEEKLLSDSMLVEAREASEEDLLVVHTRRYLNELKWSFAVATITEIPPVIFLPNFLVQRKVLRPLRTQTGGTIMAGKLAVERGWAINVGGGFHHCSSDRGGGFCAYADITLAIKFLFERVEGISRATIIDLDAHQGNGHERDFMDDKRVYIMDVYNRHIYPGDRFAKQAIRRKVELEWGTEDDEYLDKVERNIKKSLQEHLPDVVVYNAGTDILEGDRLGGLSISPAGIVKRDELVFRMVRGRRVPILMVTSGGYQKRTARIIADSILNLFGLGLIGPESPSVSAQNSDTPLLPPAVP
Description: as §1, §2, §3

recombinant human HDAC6 = target: T3, recombinant human HDAC6 (Homo sapiens, UniProt Q9UBN7); experiment: as above; format: biochemical; settings: class-IIb
T3 construct: purchased BPS Bioscience, Inc
T3 sequence (Q9UBN7 1-1215): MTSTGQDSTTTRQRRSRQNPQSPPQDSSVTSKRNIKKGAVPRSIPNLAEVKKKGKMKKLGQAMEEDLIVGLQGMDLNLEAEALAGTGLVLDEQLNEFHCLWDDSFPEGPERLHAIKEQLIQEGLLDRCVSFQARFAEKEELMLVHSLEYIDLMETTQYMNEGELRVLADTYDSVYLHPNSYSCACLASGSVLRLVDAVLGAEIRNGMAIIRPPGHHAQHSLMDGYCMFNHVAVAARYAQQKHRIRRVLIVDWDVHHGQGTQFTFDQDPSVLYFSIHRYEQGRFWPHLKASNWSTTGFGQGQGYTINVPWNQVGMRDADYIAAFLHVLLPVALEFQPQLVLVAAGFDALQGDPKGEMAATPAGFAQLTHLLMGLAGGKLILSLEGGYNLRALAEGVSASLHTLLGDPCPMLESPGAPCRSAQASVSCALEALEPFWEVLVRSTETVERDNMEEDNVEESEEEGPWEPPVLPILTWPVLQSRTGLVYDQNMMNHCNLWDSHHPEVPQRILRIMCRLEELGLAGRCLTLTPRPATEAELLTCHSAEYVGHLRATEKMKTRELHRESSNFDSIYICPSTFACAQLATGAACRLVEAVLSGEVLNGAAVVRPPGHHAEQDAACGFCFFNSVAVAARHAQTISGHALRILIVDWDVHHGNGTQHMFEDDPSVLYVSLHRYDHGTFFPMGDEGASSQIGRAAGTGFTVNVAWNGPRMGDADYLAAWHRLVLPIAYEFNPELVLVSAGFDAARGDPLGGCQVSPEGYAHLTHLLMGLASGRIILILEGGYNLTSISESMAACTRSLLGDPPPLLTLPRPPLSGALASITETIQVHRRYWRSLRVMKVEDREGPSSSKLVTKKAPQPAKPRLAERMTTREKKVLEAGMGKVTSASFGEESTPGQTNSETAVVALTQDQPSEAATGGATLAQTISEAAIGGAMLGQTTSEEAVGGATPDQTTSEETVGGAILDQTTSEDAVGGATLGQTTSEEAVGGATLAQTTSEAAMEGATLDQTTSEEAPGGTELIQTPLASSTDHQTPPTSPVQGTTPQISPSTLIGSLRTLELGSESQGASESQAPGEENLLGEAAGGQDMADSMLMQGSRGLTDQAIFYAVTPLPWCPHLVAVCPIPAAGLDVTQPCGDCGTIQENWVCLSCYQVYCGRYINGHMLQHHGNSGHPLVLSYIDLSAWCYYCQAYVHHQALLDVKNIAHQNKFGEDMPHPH
Description: as §1, §2, §3

recombinant human HDAC5 = target: T4, recombinant human HDAC5 (Homo sapiens, UniProt Q9UQL6); experiment: as above; format: biochemical
T4 construct: purchased BPS Bioscience, Inc
Description: as §1, §2, §3

recombinant human HDAC4 = target: T5, recombinant human HDAC4 (Homo sapiens, UniProt P56524); experiment: as above; format: biochemical
T5 construct: purchased BPS Bioscience, Inc
Description: as §1, §2, §3

[1] = system: endogenous class-I/IIb HDACs in HT-29 cells; experiment: Whole-cell assay of endogenous class-I/IIb HDAC inhibition in HT-29 cells (Boc-Lys-Ac substrate); format: cell-based; settings: Homo sapiens, class-I/IIb selective substrate Boc-Lys-Ac
Description: (§4) The next step was to determine the specificity, selectivity and potency of NT376 to class-IIa HDACs against endogenous class-IIa HDACs in HT-29 cells using the class-distinguishing substrates similar to our previous work[23].
as §1, with “The IC50 measurements were performed in triplicates and experiments were repeated twice with known HDAC inhibitors NT160 and SAHA used as positive and negative controls respectively.” left out
(§5) The cell-based HDAC inhibitor assays were performed in HT-29 cells (ATCC). […] The cells were then washed with HDAC Assay Buffer (RPMI 1640 media without phenol red, Gibco, containing 0.1% FBS), re-collected by centrifugation, resuspended in HDAC Assay Buffer, and counted. […] Fluorescent counts were read with a microplate reader at an excitation wavelength of 360 nm and emitted light was detected at 460 nm.

[2] = system: endogenous class-IIa HDACs in HT-29 cells; experiment: Whole-cell assay of endogenous class-IIa HDAC inhibition in HT-29 cells (Boc-Lys-TFA substrate); format: cell-based; settings: Homo sapiens, class-IIa selective substrate Boc-Lys-TFA, ± SEM
Description: as §4
as §1, with “The IC50 measurements were performed in triplicates and experiments were repeated twice with known HDAC inhibitors NT160 and SAHA used as positive and negative controls respectively.” left out
as §5

T5 sequence (P56524 whole entry): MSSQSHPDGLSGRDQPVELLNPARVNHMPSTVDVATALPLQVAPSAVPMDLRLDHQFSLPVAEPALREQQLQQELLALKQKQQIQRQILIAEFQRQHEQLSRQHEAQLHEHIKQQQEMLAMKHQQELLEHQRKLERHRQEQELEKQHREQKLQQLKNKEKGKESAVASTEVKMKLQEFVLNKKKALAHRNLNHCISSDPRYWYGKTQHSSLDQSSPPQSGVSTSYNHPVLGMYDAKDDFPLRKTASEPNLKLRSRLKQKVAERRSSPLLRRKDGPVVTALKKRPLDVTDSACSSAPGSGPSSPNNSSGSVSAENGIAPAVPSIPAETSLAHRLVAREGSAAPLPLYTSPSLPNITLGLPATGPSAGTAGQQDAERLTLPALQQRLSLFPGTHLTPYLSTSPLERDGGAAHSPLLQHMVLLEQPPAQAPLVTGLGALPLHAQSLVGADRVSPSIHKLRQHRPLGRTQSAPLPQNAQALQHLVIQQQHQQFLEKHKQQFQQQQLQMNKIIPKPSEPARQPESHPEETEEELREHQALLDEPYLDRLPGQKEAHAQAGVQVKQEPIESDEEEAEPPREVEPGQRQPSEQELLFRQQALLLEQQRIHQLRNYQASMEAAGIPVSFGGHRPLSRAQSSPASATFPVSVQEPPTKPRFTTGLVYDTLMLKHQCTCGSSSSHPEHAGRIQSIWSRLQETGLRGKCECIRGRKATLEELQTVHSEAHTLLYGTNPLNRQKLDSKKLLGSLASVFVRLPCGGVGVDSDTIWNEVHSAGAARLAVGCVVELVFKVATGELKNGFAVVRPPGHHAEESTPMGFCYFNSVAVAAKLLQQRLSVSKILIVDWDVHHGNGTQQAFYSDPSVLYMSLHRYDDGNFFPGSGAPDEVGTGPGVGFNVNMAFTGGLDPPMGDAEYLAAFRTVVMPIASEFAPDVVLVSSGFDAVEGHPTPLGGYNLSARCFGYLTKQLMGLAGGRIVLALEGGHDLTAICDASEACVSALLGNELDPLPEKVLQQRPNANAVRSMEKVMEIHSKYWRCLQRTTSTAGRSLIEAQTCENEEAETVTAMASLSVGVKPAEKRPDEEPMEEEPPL
T1 sequence (Q13547 whole entry, canonical isoform): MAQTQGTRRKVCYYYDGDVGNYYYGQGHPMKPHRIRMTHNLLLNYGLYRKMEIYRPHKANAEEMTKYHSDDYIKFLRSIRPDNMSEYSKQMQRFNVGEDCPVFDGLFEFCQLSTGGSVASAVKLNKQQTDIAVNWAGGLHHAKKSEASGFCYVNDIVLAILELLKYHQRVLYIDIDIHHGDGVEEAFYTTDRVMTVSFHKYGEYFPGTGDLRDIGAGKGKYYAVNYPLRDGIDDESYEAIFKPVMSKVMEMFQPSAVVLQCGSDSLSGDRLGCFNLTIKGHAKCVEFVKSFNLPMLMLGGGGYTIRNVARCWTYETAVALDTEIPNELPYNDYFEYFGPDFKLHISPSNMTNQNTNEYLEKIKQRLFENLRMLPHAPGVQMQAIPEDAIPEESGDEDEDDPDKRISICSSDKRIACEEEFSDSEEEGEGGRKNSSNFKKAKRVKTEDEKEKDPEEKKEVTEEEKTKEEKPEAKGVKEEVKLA
T4 sequence (Q9UQL6 whole entry): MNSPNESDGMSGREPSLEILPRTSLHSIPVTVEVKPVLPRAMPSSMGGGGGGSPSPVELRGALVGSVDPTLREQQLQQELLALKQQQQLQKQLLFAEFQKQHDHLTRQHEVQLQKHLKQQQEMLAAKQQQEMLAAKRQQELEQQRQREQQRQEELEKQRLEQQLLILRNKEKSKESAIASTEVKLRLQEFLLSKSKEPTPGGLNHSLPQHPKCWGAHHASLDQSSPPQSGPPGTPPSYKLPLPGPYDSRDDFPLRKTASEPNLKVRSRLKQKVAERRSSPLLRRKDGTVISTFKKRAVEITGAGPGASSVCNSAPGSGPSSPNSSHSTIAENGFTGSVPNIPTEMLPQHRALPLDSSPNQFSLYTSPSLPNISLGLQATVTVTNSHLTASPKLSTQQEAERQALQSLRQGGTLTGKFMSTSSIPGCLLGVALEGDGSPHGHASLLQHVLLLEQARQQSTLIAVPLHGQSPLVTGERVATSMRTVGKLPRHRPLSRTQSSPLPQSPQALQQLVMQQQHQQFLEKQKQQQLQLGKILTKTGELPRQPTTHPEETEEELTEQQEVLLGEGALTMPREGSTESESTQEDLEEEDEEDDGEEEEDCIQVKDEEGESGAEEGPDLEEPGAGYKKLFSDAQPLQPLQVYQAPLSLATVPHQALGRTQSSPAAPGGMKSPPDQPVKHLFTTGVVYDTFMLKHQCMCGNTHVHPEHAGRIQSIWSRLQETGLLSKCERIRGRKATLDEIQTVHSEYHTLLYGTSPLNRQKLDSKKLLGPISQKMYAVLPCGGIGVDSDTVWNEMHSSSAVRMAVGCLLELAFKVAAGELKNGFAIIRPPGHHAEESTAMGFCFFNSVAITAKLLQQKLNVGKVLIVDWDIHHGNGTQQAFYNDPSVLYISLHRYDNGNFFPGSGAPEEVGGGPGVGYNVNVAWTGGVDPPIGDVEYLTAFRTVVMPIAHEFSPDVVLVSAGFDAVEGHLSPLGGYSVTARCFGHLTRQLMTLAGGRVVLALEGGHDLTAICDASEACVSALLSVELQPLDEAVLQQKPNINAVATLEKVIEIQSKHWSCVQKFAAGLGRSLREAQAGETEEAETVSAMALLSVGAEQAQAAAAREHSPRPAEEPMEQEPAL

IC50 (recombinant human HDAC1): 1480 nM | IC50 (recombinant human HDAC11): 4850 nM | IC50 (recombinant human HDAC6): 5030 nM | IC50 (recombinant human HDAC5): 2.85 nM | IC50 (recombinant human HDAC4): 1.26 nM | IC50 [1]: > 4000 nM | IC50 [2]: 32 ± 7.6 nM
SMILES: C[C@H](CN(C)Cc1ccccc1)NC(=O)c1ccc(-c2noc(C(F)(F)F)n2)cc1F [NT376, (R)-N-(1-(benzyl(methyl)amino)propan-2-yl)-2-fluoro-4-(5-(trifluoromethyl)-1,2,4-oxadiazol-3-yl)benzamide]
